In patent US11021442B2, “Process for the preparation of freeze-dried 2-[(3-aminopropyl)amino] ethanethiol formulation” (CLEVEXEL PHARMA, priority 2016, dated 2021):

Experiments:
[1] = system: radiation-induced oral mucositis; assay: Second efficacy study, radiation-induced oral mucositis, 18 Gy single fraction (Example F-4); format: in vivo, mice
Protocol: The experiment was conducted with gels containing 20, 40 or 80 mg/ml Amifostine (corresponding to 12.5, 25 or 50 mg/ml amifostine thiol respectively). A lower dose of irradiation (a single fraction irradiation of 18 Gy) was delivered to the snout, so that all the mice could be kept alive until the end of the experiment. Different amounts of compound were administered to mice (1; 2 or 4 mg per mouse).
The same experimental procedure as for in example F-2 was used. Briefly, mice were anesthetized, Amifostine or Amifostine thiol was delivered 10 minutes later or not depending on the group (gel application or intravenous injection), mice were irradiated dorsally at an 18 Gy dose 30 minutes after the administration of Amifostine or Amifostine thiol and awakened 20 minutes later.
[…] were allocated to 6 groups: • Control (n=6 mice); • Placebo gel (n=6 mice); • Amifostine thiol 20 mg/ml gel (1 mg amifostine/mouse, n=6 mice); • Amifostine thiol 40 mg/ml gel (2 mg amifostine/mouse, n=6 mice); • Amifostine thiol 80 mg/ml gel (4 mg amifostine/mouse, n=6 mice); and • Amifostine intravenous (IV) (20 mg/ml) (4 mg amifostine/mouse, n=5 mice).
For each group, the development of oral mucositis was evaluated on 5 or 6 mice depending on the group. An 18 Gy dose irradiation induced a less severe phenotype than the 20 Gy dose irradiation that was used in the first efficacy experiment.

[2] = system: radiation-induced oral mucositis; assay: Efficacy study, radiation-induced oral mucositis, 20 Gy single fraction (Example F-2); format: in vivo, C57BL/6 mice
Protocol: Female C57BL/6 mice (12 weeks old) purchased from Janvier CERT (Le Genest St. Isle, France) were used after an acclimation time of 7 days. They had free access to food (SAFE reference R0340, Augy, France) and water. They were housed on a 12 hours light/dark cycle at a room temperature of 22° C.±2° C. and a relative humidity of 55%±15%.
Irradiation was carried out locally with a X-ray Varian NDI 226 tube (200 kV, 15 mA, 0.2 mm Cu) at a dose rate of 1.33 Gy/min, the rest of the body being protected by a lead shield. Mice were euthanized when body weight loss exceeded 20% of the initial weight for more than 24 hours or in case of severe clinical signs (ethical endpoints). […]
Two parameters were monitored: the body weight and the Parkins score. This represents an arbitrary score system devised by Parkins and co-workers with separate scores for edema and erythema evaluated by macroscopic observation (Parkins, C. S., Fowler, J. F., and Yu, S. (1983). A murine model of lip epidermal/mucosal reactions to X-irradiation. Radiotherapy and oncology: Journal of the European Society for Therapeutic Radiology and Oncology 1, 159-165). […]
The Parkins score is calculated as follows: “Parkins score”=edema score+erythema score.
A single dose irradiation was delivered to the snout of mice. This induced a mucosal/epidermal lip reaction that was monitored through macroscopic observation and scoring. […]

[3] = system: radiation-induced oral mucositis; assay: Third efficacy study, radiation-induced oral mucositis, four fractions of 8 Gy (Example F-6); format: in vivo, mice
Source text: Four fractions of 8 Gy were delivered for four consecutive days (everyday from day 0 to day 3; day 0 corresponding to the first day of treatment) to the snout. The fractionation scheme of four fractions of 8 Gy was chosen, because it is biologically equivalent to 1 fraction of 18 Gy (Biologically Effective Dose: BED 120 Gy). […] Thus, the compound was applied 4 times for four consecutive days. For each day, a similar experimental procedure as for in example F-2 was used. […] The same experimental procedure was repeated for 4 consecutive days.

[4] = Stability of lyophilized powder of aminothiol (WR-1065) at 25° C./60% RH under argon; format: physicochemical
Protocol: A stability study is performed to compare stability of: • WR-1065 obtained by conversion of amifostine (350 mg/ml or 500 mg/ml) in acidic condition (respectively HCl 1M or HCl 4M), diluted in water or in P407/P188 mixture and then lyophilized (based on examples described in parts A & B), and • WR-1065 hydrochloride salt crystalline powder.
Stability is assessed by analysis of samples stored under argon atmosphere at 25° C./60% RH. The aim of argon is to provide two materials under same stability condition.

[5] = T1m-25° C./60% RH, under argon atm.
[6] = T15d-25° C./60% RH, under argon atm.

NCCCNCCSP(=O)(O)O [Amifostine IV, Amifostine]
effect on mucositis peak and healing period, in words [1]: healing period was nearly absent
day of acute peak of mucosal reaction ([1]; IV 4 mg amifostine/mouse): 12 days
Parkins score at the peak of mucosal reaction ([1]; gels 1, 2 or 4 mg amifostine/mouse, IV 4 mg/mouse, 30 minutes before irradiation): 2.2
effect on development and intensity of mucositis (Parkins score), in words ([2]; 20 Gy single fraction to snout, 4 mg amifostine/mouse 30 minutes before irradiation, thiol gel = Gel n°1, Amifostine gel = Gel n°2): mucosal reaction of moderate intensity
day after irradiation at which edema and erythema completely disappeared ([2]; 20 Gy single fraction, 4 mg amifostine/mouse IV): 20 days
day of acute peak of mucosal reaction ([3]; IV 2 mg amifostine/mouse): ~15 days
Parkins score at the peak of mucosal reaction ([3]; day 0 to day 3, 2 mg amifostine per mouse before each fraction, thiol gel = Gel n°9): 2.6

NCCCNCCS [WR-1065•2HCl native, 2-[(3-aminopropyl)amino]ethanethiol]
Amifostine ([4]; T0, under argon atm.): 0%
Aminothiol ([4]; T0, under argon atm.): 99.7%
Disulfides ([4]; T0, under argon atm.): 0.3%
Unknow ([4]; T0, under argon atm.): <LOQ
Amifostine [4, 5]: 0%
Aminothiol [4, 5]: 99.3%
Disulfides [4, 5]: 0.5%
Unknow [4, 5]: 0.2%
Amifostine [4, 6]: 0%
Aminothiol [4, 6]: 99.6%
Disulfides [4, 6]: 0.4%
Unknow [4, 6]: <LOQ
